Test results published in US20050245527A1, “Nitrogen containing heterocyclic compounds and medicines containing the same” (priority 2002, published 2005).
Where a name gives a salt, the structure may show the parent alone.

Each molecule was assayed on sodium channels (assay: not given). Settings: read-out: IC50 (μM), sodium channel-inhibiting activity; rat fetal cultured hippocampal neurons, SBFI fluorescence in the presence of 4-aminopyridine, 5 minutes after addition, 1 μM tetrodotoxin = 100%.
Type: cell-based

Row | Structure (SMILES) | IC50
1 | C[C@H]1C[C@@H](C(=O)Cc2ccccc2F)CCN1Cc1ncc[nH]c1=O (relative stereo) [Example 415, cis-3-[4-[2-(2-Fluorophenyl)acetyl]-2-methylpiperidino]methyl-1H-pyrazin-2-one] | 4.6 µM
2 | O=c1[nH]cccc1CN1CCC(F)(COc2ccccc2F)CC1 [Example 124, 3-[4-Fluoro-4-(2-fluorophenoxymethyl)piperidino]methyl-1H-pyridin-2-one] | 7.8 µM
3 | O=c1[nH]cccc1CN1CC2CCCC(C1)C2/C=C/c1ccccc1F (stereo not drawn) [Example 129, anti-(E)-3-[9-[2-(2-Fluorophenyl)vinyl]-3-azabicyclo[3.3.1]non-3-yl]methyl-1H-pyridin-2-one] | 2.1 µM
4 | O=c1[nH]ccnc1CN1CCOC(COc2ccccc2F)C1 (stereo not drawn) [Example 342, 3-[3-(2-Fluorophenoxymethyl)morpholin-1-yl]methyl-1H-pyrazin-2-one] | 3 µM
5 | O=C(Cc1ccccc1OC(F)(F)F)C1CCN(Cc2ncc[nH]c2=O)CC1 [Example 345, 3-[4-[2-[2-(Trifluoromethoxy)phenyl]acetyl]piperidino]methyl-1H-pyrazin-2-one] | 2.1 µM
6 | CCCOc1ccccc1CC(=O)C1CCN(Cc2ncc[nH]c2=O)CC1 [Example 348, 3-[4-[2-(2-n-Propoxyphenyl)acetyl]piperidino]methyl-1H-pyrazin-2-one] | 2.6 µM
7 | CC(C(=O)C1CCN(Cc2ncc[nH]c2=O)CC1)c1ccccc1F (stereo not drawn) [Example 349, 3-[4-[2-(2-Fluorophenyl)propionyl]piperidino]methyl-1H-pyrazin-2-one] | 8.9 µM
8 | O=C(Cc1cccc2ccccc12)C1CCN(Cc2ncc[nH]c2=O)CC1 [Example 353, 3-[4-[2-(1-Naphthyl)acetyl]piperidino]methyl-1H-pyrazin-2-one] | 1.7 µM
9 | CC1(COc2ccccc2Cl)CCN(Cc2ncc[nH]c2=O)CC1 [Example 354, 3-[4-(2-Chlorophenoxymethyl)-4-methylpiperidino]methyl-1H-pyrazin-2-one] | 2.8 µM
10 | Cc1ccccc1OCC1(C)CCN(Cc2ncc[nH]c2=O)CC1 [Example 355, 3-[4-Methyl-4-(2-methylphenoxymethyl)piperidino]methyl-1H-pyrazin-2-one] | 2.5 µM
11 | COc1ccccc1OCC1(C)CCN(Cc2ncc[nH]c2=O)CC1 [Example 356, 3-[4-(2-Methoxyphenoxymethyl)-4-methylpiperidino]methyl-1H-pyrazin-2-one] | 2.9 µM
12 | O=C(Cc1ccccc1-c1ccccc1)C1CCN(Cc2ncc[nH]c2=O)CC1 [Example 359, 3-[4-[2-(2-Biphenyl)acetyl]piperidino]methyl-1H-pyrazin-2-one] | 1.4 µM
13 | O=C(Cc1ccccc1Br)C1CCN(Cc2ncc[nH]c2=O)CC1 [Example 362, 3-[4-[2-(2-Bromophenyl)acetyl]piperidino]methyl-1H-pyrazin-2-one] | 4.5 µM
14 | O=C(Cc1ccccc1F)C1CCN(Cc2ccn[nH]c2=O)CC1 [Example 364, 4-[4-[2-(2-Fluorophenyl)acetyl]piperidino]methyl-2H-pyridazin-3-one] | 9.3 µM
15 | O=C(Cc1ccccc1F)C1(F)CCN(Cc2ncc[nH]c2=O)CC1 [Example 370, 3-[4-Fluoro-4-[2-(2-fluorophenyl)acetyl]piperidino]methyl-1H-pyrazin-2-one] | 9.6 µM
16 | O=C1CN(Cc2ncc[nH]c2=O)CCC1CCc1ccccc1F (stereo not drawn) [Example 371, 3-[4-[2-(2-Fluorophenyl)ethyl]-3-oxopiperidino]methyl-1H-pyrazin-2-one] | 9 µM
17 | O=C(Cc1ccccc1C(F)(F)F)C1(F)CCN(Cc2ncc[nH]c2=O)CC1 [Example 372, 3-[4-Fluoro-4-[2-[2-(trifluoromethyl)phenyl]acetyl]piperidino]methyl-1H-pyrazin-2-one] | 3.3 µM
18 | O=c1[nH]ccnc1CN1CCCC(COc2ccccc2F)CC1 (stereo not drawn) [Example 388, 3-[4-(2-Fluorophenoxymethyl)azepan-1-yl]methyl-1H-pyrazin-2-one] | 4.7 µM
19 | CC(c1ncc[nH]c1=O)N1CCC(COc2ccccc2F)CC1 (stereo not drawn) [Example 395, 3-[1-[4-(2-Fluorophenoxymethyl)piperidino]ethyl]-1H-pyrazin-2-one oxalate] | 6.7 µM
20 | O=c1[nH]ccnc1CN1CCC([S+]([O-])Cc2ccccc2F)CC1 (stereo not drawn) [Example 398, 3-[4-(2-Fluorobenzylsulfinyl)piperidino]methyl-1H-pyrazin-2-one] | 3.4 µM
21 | CC1(COc2ccccc2F)CCN(Cc2ncc[nH]c2=O)CC1 [Example 406, 3-[4-(2-Fluorophenoxymethyl)-4-methylpiperidino]methyl-1H-pyrazin-2-one] | 3 µM
22 | O=C(Cc1cccc2c1OCC2)C1CCN(Cc2ncc[nH]c2=O)CC1 [Example 410, 3-[4-[2-(2,3-Dihydrobenzofuran-7-yl)acetyl]piperidino]methyl-1H-pyrazin-2-one] | 5.7 µM
23 | O=c1[nH]ccnc1CN1CCC(SCc2ccccc2F)CC1 [Example 411, 3-[4-(2-Fluorobenzylthio)piperidino]methyl-1H-pyrazin-2-one] | 4.8 µM
24 | O=c1[nH]ccnc1CN1CCC(/C=C/c2ccccc2OCC2CCCCC2)CC1 [Example 412, (E)-3-[4-[2-[2-(Cyclohexylmethyloxy)phenyl]vinyl]piperidino]methyl-1H-pyrazin-2-one oxalate] | 1.2 µM

The molecules below were run on left saphenous nerve of rats (ectopic firing) (assay: Inhibition of ectopic firing). Settings: Rattus norvegicus, iv; rats with cut left saphenous nerve, urethane anesthesia, compound via catheter in right cervical vein, number of firings in 10 seconds; read-out: Inhibition of ectopic firing (ID50).
Type: in vivo
Description: <Inhibition of Ectopic Firing>
(1) The inhibitory effect on ectopic firing was evaluated by the following method, with reference to Burchiel, K J., Exp. Neurol., 102, 249-253 (1988).
(2) The left saphenous nerve of rats, in which ectopic firing was observed, was cut near the knee joint, and approximately 3 mm was cut off to avoid reattachment of the cut nerve. After more than a week, the left saphenous nerve was exposed under urethane (1 g/kg body weight) anesthesia, and the proximal part up to approximately 1 cm from the cut site was detached from the surrounding tissue. A catheter was inserted in the right cervical vein beforehand for administration of the compound.
(3) The detached nerve was placed on a platinum hook electrode and wetted with liquid paraffin to avoid drying of the nerve. The electrode was connected to a microelectrode amplifier, and the change in potential was recorded from an oscilloscope through an A/D converter onto a computer. The recorded nerve firing was evaluated based on the number of firings in 10 seconds, using analyzing software (AcqKnowledge).

Row | Structure (SMILES) | ED50
25 | C[C@H]1C[C@@H](C(=O)Cc2ccccc2F)CCN1Cc1ncc[nH]c1=O (relative stereo) [Example 415, cis-3-[4-[2-(2-Fluorophenyl)acetyl]-2-methylpiperidino]methyl-1H-pyrazin-2-one] | < 0.5 mg/kg
26 | Cc1ccccc1OCC1(C#N)CCN(Cc2ccc[nH]c2=O)CC1 [Example 122, 1-(2-Oxo-1,2-dihydro-3-pyridylmethyl)-4-(2-methylphenoxymethyl)piperidine-4-carbonitrile] | < 0.5 mg/kg
27 | O=c1[nH]cccc1CN1CCC(F)(COc2ccccc2F)CC1 [Example 124, 3-[4-Fluoro-4-(2-fluorophenoxymethyl)piperidino]methyl-1H-pyridin-2-one] | < 0.5 mg/kg
28 | O=c1[nH]cccc1CN1CCC(CCc2ccccc2F)(COc2ccccc2F)CC1 [Example 127, 3-[4-(2-Fluorophenoxymethyl)-4-[2-(2-fluorophenyl)ethyl]piperidino]methyl-1H-pyridin-2-one] | 0.5 to 1 mg/kg
29 | Cc1ccccc1OCC1(CCc2ccccc2F)CCN(Cc2ccc[nH]c2=O)CC1 [Example 128, 3-[4-[2-(2-Fluorophenyl)ethyl]-4-(2-methylphenoxymethyl)piperidino]methyl-1H-pyridin-2-one] | 0.5 to 1 mg/kg
30 | O=c1[nH]cccc1CN1CC2CCCC(C1)C2/C=C/c1ccccc1F (stereo not drawn) [Example 129, anti-(E)-3-[9-[2-(2-Fluorophenyl)vinyl]-3-azabicyclo[3.3.1]non-3-yl]methyl-1H-pyridin-2-one] | 0.5 to 1 mg/kg
31 | O=c1ccnc(CN2CCC(COc3ccccc3F)CC2)[nH]1 [Example 137, 2-[4-(2-Fluorophenoxymethyl)piperidino]methyl-3H-pyrimidin-4-one] | 0.5 to 1 mg/kg
32 | O=C(CC1CCN(Cc2ncc[nH]c2=O)CC1)c1ccccc1F [Example 139, 3-[4-[2-(2-Fluorophenyl)-2-oxoethyl]piperidino]methyl-1H-pyrazin-2-one] | 0.5 to 1 mg/kg
33 | O=c1[nH]ccnc1CN1CCC(OCc2ccccc2F)CC1 [Example 141, 3-[4-(2-Fluorobenzyloxy)piperidino]methyl-1H-pyrazin-2-one] | < 0.5 mg/kg
34 | O=c1[nH]ccnc1CN1CCC(COc2ccc(F)cc2F)CC1 [Example 163, 3-[4-(2,4-Difluorophenoxymethyl)piperidino]methyl-1H-pyrazin-2-one] | < 0.5 mg/kg
35 | O=c1[nH]ccnc1CN1CCC(CC(F)c2ccccc2F)CC1 (stereo not drawn) [Example 178, 3-[4-[2-Fluoro-2-(2-fluorophenyl)ethyl]piperidino]methyl-1H-pyrazin-2-one] | < 0.5 mg/kg
36 | O=c1nccc(CCN2CCC(COc3ccccc3F)CC2)[nH]1 [Example 181, 4-[2-[4-(2-Fluorophenoxymethyl)piperidino]ethyl]-3H-pyrimidin-2-one] | < 0.5 mg/kg
37 | O=c1[nH]cncc1CN1CCC(COc2ccccc2F)CC1 [Example 230, 5-[4-(2-Fluorophenoxymethyl)piperidino]methyl-3H-pyrimidin-4-one] | < 0.5 mg/kg
38 | O=c1[nH]ccnc1CCN1CCC(COc2ccccc2F)CC1 [Example 232, 3-[2-[4-(2-Fluorophenoxymethyl)piperidino]ethyl]-1H-pyrazin-2-one] | < 0.5 mg/kg
39 | O=c1cncc(CCN2CCC(COc3ccccc3F)CC2)[nH]1 [Example 233, 6-[2-[4-(2-Fluorophenoxymethyl)piperidino]ethyl]-1H-pyrazin-2-one] | < 0.5 mg/kg
40 | O=c1cncc(CCN2CCC(/C=C/c3ccccc3F)CC2)[nH]1 [Example 234, (E)-6-[2-[4-(2-(2-Fluorophenyl)vinyl]piperidino]ethyl]-1H-pyrazin-2-one] | 0.5 to 1 mg/kg
41 | O=C(Cc1ccccc1F)C1CCN(CCc2cncc(=O)[nH]2)CC1 [Example 237, 6-[2-[4-[2-(2-Fluorophenyl)acetyl]piperidino]ethyl]-1H-pyrazin-2-one] | 0.5 to 1 mg/kg
42 | O=c1cncc(CCN2CCC(COc3ccc(F)cc3)CC2)[nH]1 [Example 246, 6-[2-[4-(4-Fluorophenoxymethyl)piperidino]ethyl]-1H-pyrazin-2-one] | 0.5 to 1 mg/kg
43 | Cc1ccccc1OCC1(O)CCN(Cc2ccc[nH]c2=O)CC1 [Example 252, 3-[4-Hydroxy-4-(2-methylphenoxymethyl)piperidino]methyl-1H-pyridin-2-one] | 0.5 to 1 mg/kg
44 | O=c1[nH]cccc1CN1CCC(CCc2ccccc2)(COc2ccccc2F)CC1 [Example 257, 3-[4-(2-Fluorophenoxymethyl)-4-(2-phenylethyl)piperidino]methyl-1H-pyridin-2-one] | < 0.5 mg/kg
45 | Cc1ccccc1C#CC1(O)CCN(Cc2ccc[nH]c2=O)CC1 [Example 259, 3-[4-Hydroxy-4-[(2-methylphenyl)ethynyl]piperidino]methyl-1H-pyridin-2-one] | < 0.5 mg/kg
